Tests used:
Assay type in all cases: cell-based
[1] = system: E. coli O157:H7; experiment: E. coli O157:H7 counts in water containing rumen content or feces treated with chemicals or chemical combinations; conditions: for inactivation of E. coli O157:H7 within 20 minutes: butyric acid >2%, caprylic acid >0.1%, data not shown; for E. coli O157:H7 counts (log10 cfu/ml) at min 0 / E. coli O157:H7 counts (log10 cfu/ml) at min 2 / E. coli O157:H7 counts (log10 cfu/ml) at min 5 / E. coli O157:H7 counts (log10 cfu/ml) at min 10 / E. coli O157:H7 counts (log10 cfu/ml) at min 20 / E. coli O157:H7 counts (log10 cfu/ml) at min 30 / E. coli O157:H7 counts (log10 cfu/ml) at min 60 / E. coli O157:H7 counts (log10 cfu/ml) at min 120: 21° C.; for E. coli O157:H7 counts (log10 cfu/ml) at min 0: 0 min; for E. coli O157:H7 counts (log10 cfu/ml) at min 2: 2 min; for E. coli O157:H7 counts (log10 cfu/ml) at min 5: 5 min; for E. coli O157:H7 counts (log10 cfu/ml) at min 10: 10 min; for E. coli O157:H7 counts (log10 cfu/ml) at min 20: 20 min; for E. coli O157:H7 counts (log10 cfu/ml) at min 30: 30 min; for E. coli O157:H7 counts (log10 cfu/ml) at min 60: 60 min; for E. coli O157:H7 counts (log10 cfu/ml) at min 120: 120 min
[2] = system: E. coli O26:H11; experiment: E. coli O26:H11 counts in water containing rumen content or feces treated with chemical combinations; conditions: 21° C.; for E. coli O26:H11 counts (log10 cfu/ml) at min: 0: 0 min; for E. coli O26:H11 counts (log10 cfu/ml) at min: 2: 2 min; for E. coli O26:H11 counts (log10 cfu/ml) at min: 5: 5 min; for E. coli O26:H11 counts (log10 cfu/ml) at min: 10: 10 min; for E. coli O26:H11 counts (log10 cfu/ml) at min: 20: 20 min; for E. coli O26:H11 counts (log10 cfu/ml) at min: 30: 30 min; for E. coli O26:H11 counts (log10 cfu/ml) at min: 60: 60 min; for E. coli O26:H11 counts (log10 cfu/ml) at min: 120: 120 min
[3] = system: E. coli O111:NM; experiment: E. coli O111:NM counts in water containing rumen content or feces treated with chemical combinations; conditions: 21° C.; for E. coli O111:NM counts (log10 cfu/ml) at min 0: 0 min; for E. coli O111:NM counts (log10 cfu/ml) at min 2: 2 min; for E. coli O111:NM counts (log10 cfu/ml) at min 5: 5 min; for E. coli O111:NM counts (log10 cfu/ml) at min 10: 10 min; for E. coli O111:NM counts (log10 cfu/ml) at min 20: 20 min; for E. coli O111:NM counts (log10 cfu/ml) at min 30: 30 min; for E. coli O111:NM counts (log10 cfu/ml) at min 60: 60 min; for E. coli O111:NM counts (log10 cfu/ml) at min 120: 120 min
[4] = water containing feces (20:1, v/w)
[5] = water containing rumen content (10:1, v/w)

Structure (SMILES): CCCC(=O)O [0.5% butyric acid, butyric acid]
- inactivation of E. coli O157:H7 within 20 minutes [1]: substantial inactivation
- E. coli O157:H7 counts (log10 cfu/ml) at min 0 [1, 4]: 6.0 log10 cfu/ml
- E. coli O157:H7 counts (log10 cfu/ml) at min 2 [1, 4]: 6.0 log10 cfu/ml
- E. coli O157:H7 counts (log10 cfu/ml) at min 5 [1, 4]: 6.0 log10 cfu/ml
- E. coli O157:H7 counts (log10 cfu/ml) at min 10 [1, 4]: 6.1 log10 cfu/ml
- E. coli O157:H7 counts (log10 cfu/ml) at min 20 [1, 4]: 6.1 log10 cfu/ml
- E. coli O157:H7 counts (log10 cfu/ml) at min 30 [1, 4]: 6.1 log10 cfu/ml
- E. coli O157:H7 counts (log10 cfu/ml) at min 60 [1, 4]: 6.0 log10 cfu/ml
- E. coli O157:H7 counts (log10 cfu/ml) at min 120 [1, 4]: 6.0 log10 cfu/ml
- E. coli O157:H7 counts (log10 cfu/ml) at min 0 [1, 5]: 5.9 log10 cfu/ml
- E. coli O157:H7 counts (log10 cfu/ml) at min 2 [1, 5]: 5.9 log10 cfu/ml
- E. coli O157:H7 counts (log10 cfu/ml) at min 5 [1, 5]: 5.9 log10 cfu/ml
- E. coli O157:H7 counts (log10 cfu/ml) at min 10 [1, 5]: 5.8 log10 cfu/ml
- E. coli O157:H7 counts (log10 cfu/ml) at min 20 [1, 5]: 5.7 log10 cfu/ml
- E. coli O157:H7 counts (log10 cfu/ml) at min 30 [1, 5]: 5.8 log10 cfu/ml
- E. coli O157:H7 counts (log10 cfu/ml) at min 60 [1, 5]: 5.6 log10 cfu/ml
- E. coli O157:H7 counts (log10 cfu/ml) at min 120 [1, 5]: 5.7 log10 cfu/ml
- E. coli O26:H11 counts (log10 cfu/ml) at min: 0 [2, 4]: 5.5 log10 cfu/ml
- E. coli O26:H11 counts (log10 cfu/ml) at min: 2 [2, 4]: 5.4 log10 cfu/ml
- E. coli O26:H11 counts (log10 cfu/ml) at min: 5 [2, 4]: 5.4 log10 cfu/ml
- E. coli O26:H11 counts (log10 cfu/ml) at min: 10 [2, 4]: 5.4 log10 cfu/ml
- E. coli O26:H11 counts (log10 cfu/ml) at min: 20 [2, 4]: 5.5 log10 cfu/ml
- E. coli O26:H11 counts (log10 cfu/ml) at min: 30 [2, 4]: 5.2 log10 cfu/ml
- E. coli O26:H11 counts (log10 cfu/ml) at min: 60 [2, 4]: 5.2 log10 cfu/ml
- E. coli O26:H11 counts (log10 cfu/ml) at min: 120 [2, 4]: 5.0 log10 cfu/ml
- E. coli O26:H11 counts (log10 cfu/ml) at min: 0 [2, 5]: 5.4 log10 cfu/ml
- E. coli O26:H11 counts (log10 cfu/ml) at min: 2 [2, 5]: 5.4 log10 cfu/ml
- E. coli O26:H11 counts (log10 cfu/ml) at min: 5 [2, 5]: 5.3 log10 cfu/ml
- E. coli O26:H11 counts (log10 cfu/ml) at min: 10 [2, 5]: 5.4 log10 cfu/ml
- E. coli O26:H11 counts (log10 cfu/ml) at min: 20 [2, 5]: 5.4 log10 cfu/ml
- E. coli O26:H11 counts (log10 cfu/ml) at min: 30 [2, 5]: 5.2 log10 cfu/ml
- E. coli O26:H11 counts (log10 cfu/ml) at min: 60 [2, 5]: 5.4 log10 cfu/ml
- E. coli O26:H11 counts (log10 cfu/ml) at min: 120 [2, 5]: 5.1 log10 cfu/ml
- E. coli O111:NM counts (log10 cfu/ml) at min 0 [3, 4]: 5.6 log10 cfu/ml
- E. coli O111:NM counts (log10 cfu/ml) at min 2 [3, 4]: 5.6 log10 cfu/ml
- E. coli O111:NM counts (log10 cfu/ml) at min 5 [3, 4]: 5.5 log10 cfu/ml
- E. coli O111:NM counts (log10 cfu/ml) at min 10 [3, 4]: 5.6 log10 cfu/ml
- E. coli O111:NM counts (log10 cfu/ml) at min 20 [3, 4]: 5.6 log10 cfu/ml
- E. coli O111:NM counts (log10 cfu/ml) at min 30 [3, 4]: 5.6 log10 cfu/ml
- E. coli O111:NM counts (log10 cfu/ml) at min 60 [3, 4]: 5.6 log10 cfu/ml
- E. coli O111:NM counts (log10 cfu/ml) at min 120 [3, 4]: 5.6 log10 cfu/ml
- E. coli O111:NM counts (log10 cfu/ml) at min 0 [3, 5]: 5.5 log10 cfu/ml
- E. coli O111:NM counts (log10 cfu/ml) at min 2 [3, 5]: 5.5 log10 cfu/ml
- E. coli O111:NM counts (log10 cfu/ml) at min 5 [3, 5]: 5.5 log10 cfu/ml
- E. coli O111:NM counts (log10 cfu/ml) at min 10 [3, 5]: 5.6 log10 cfu/ml
- E. coli O111:NM counts (log10 cfu/ml) at min 20 [3, 5]: 5.6 log10 cfu/ml
- E. coli O111:NM counts (log10 cfu/ml) at min 30 [3, 5]: 5.4 log10 cfu/ml
- E. coli O111:NM counts (log10 cfu/ml) at min 60 [3, 5]: 5.5 log10 cfu/ml
- E. coli O111:NM counts (log10 cfu/ml) at min 120 [3, 5]: 5.6 log10 cfu/ml

Structure (SMILES): CCCCCCCC(=O)O [0.05% caprylic acid, caprylic acid]
- inactivation of E. coli O157:H7 within 20 minutes [1]: substantial inactivation
- E. coli O157:H7 counts (log10 cfu/ml) at min 0 [1, 4]: 6.0 log10 cfu/ml
- E. coli O157:H7 counts (log10 cfu/ml) at min 2 [1, 4]: 5.6 log10 cfu/ml
- E. coli O157:H7 counts (log10 cfu/ml) at min 5 [1, 4]: 4.3 log10 cfu/ml
- E. coli O157:H7 counts (log10 cfu/ml) at min 10 [1, 4]: 2.3 log10 cfu/ml
- E. coli O157:H7 counts (log10 cfu/ml) at min 20 [1, 4]: 2.0 log10 cfu/ml
- E. coli O157:H7 counts (log10 cfu/ml) at min 30 [1, 4]: 2.0 log10 cfu/ml
- E. coli O157:H7 counts (log10 cfu/ml) at min 60 [1, 4]: 2.0 log10 cfu/ml
- E. coli O157:H7 counts (log10 cfu/ml) at min 120 [1, 4]: 1.7 log10 cfu/ml
- E. coli O157:H7 counts (log10 cfu/ml) at min 0 [1, 5]: 6.0 log10 cfu/ml
- E. coli O157:H7 counts (log10 cfu/ml) at min 2 [1, 5]: 6.0 log10 cfu/ml
- E. coli O157:H7 counts (log10 cfu/ml) at min 5 [1, 5]: 6.0 log10 cfu/ml
- E. coli O157:H7 counts (log10 cfu/ml) at min 10 [1, 5]: 5.9 log10 cfu/ml
- E. coli O157:H7 counts (log10 cfu/ml) at min 20 [1, 5]: 6.0 log10 cfu/ml
- E. coli O157:H7 counts (log10 cfu/ml) at min 30 [1, 5]: 5.9 log10 cfu/ml
- E. coli O157:H7 counts (log10 cfu/ml) at min 60 [1, 5]: 5.9 log10 cfu/ml
- E. coli O157:H7 counts (log10 cfu/ml) at min 120 [1, 5]: 6.0 log10 cfu/ml
- E. coli O26:H11 counts (log10 cfu/ml) at min: 0 [2, 4]: 5.5 log10 cfu/ml
- E. coli O26:H11 counts (log10 cfu/ml) at min: 2 [2, 4]: 5.4 log10 cfu/ml
- E. coli O26:H11 counts (log10 cfu/ml) at min: 5 [2, 4]: 5.5 log10 cfu/ml
- E. coli O26:H11 counts (log10 cfu/ml) at min: 10 [2, 4]: 5.5 log10 cfu/ml
- E. coli O26:H11 counts (log10 cfu/ml) at min: 20 [2, 4]: 5.3 log10 cfu/ml
- E. coli O26:H11 counts (log10 cfu/ml) at min: 30 [2, 4]: 5.2 log10 cfu/ml
- E. coli O26:H11 counts (log10 cfu/ml) at min: 60 [2, 4]: 5.2 log10 cfu/ml
- E. coli O26:H11 counts (log10 cfu/ml) at min: 120 [2, 4]: 5.0 log10 cfu/ml
- E. coli O26:H11 counts (log10 cfu/ml) at min: 0 [2, 5]: 5.3 log10 cfu/ml
- E. coli O26:H11 counts (log10 cfu/ml) at min: 2 [2, 5]: 5.4 log10 cfu/ml
- E. coli O26:H11 counts (log10 cfu/ml) at min: 5 [2, 5]: 5.2 log10 cfu/ml
- E. coli O26:H11 counts (log10 cfu/ml) at min: 10 [2, 5]: 5.4 log10 cfu/ml
- E. coli O26:H11 counts (log10 cfu/ml) at min: 20 [2, 5]: 5.3 log10 cfu/ml
- E. coli O26:H11 counts (log10 cfu/ml) at min: 30 [2, 5]: 5.4 log10 cfu/ml
- E. coli O26:H11 counts (log10 cfu/ml) at min: 60 [2, 5]: 5.4 log10 cfu/ml
- E. coli O26:H11 counts (log10 cfu/ml) at min: 120 [2, 5]: 5.4 log10 cfu/ml
- E. coli O111:NM counts (log10 cfu/ml) at min 0 [3, 4]: 5.7 log10 cfu/ml
- E. coli O111:NM counts (log10 cfu/ml) at min 2 [3, 4]: 5.5 log10 cfu/ml
- E. coli O111:NM counts (log10 cfu/ml) at min 5 [3, 4]: 5.7 log10 cfu/ml
- E. coli O111:NM counts (log10 cfu/ml) at min 10 [3, 4]: 5.5 log10 cfu/ml
- E. coli O111:NM counts (log10 cfu/ml) at min 20 [3, 4]: 5.6 log10 cfu/ml
- E. coli O111:NM counts (log10 cfu/ml) at min 30 [3, 4]: 5.7 log10 cfu/ml
- E. coli O111:NM counts (log10 cfu/ml) at min 60 [3, 4]: 5.5 log10 cfu/ml
- E. coli O111:NM counts (log10 cfu/ml) at min 120 [3, 4]: 5.4 log10 cfu/ml
- E. coli O111:NM counts (log10 cfu/ml) at min 0 [3, 5]: 5.6 log10 cfu/ml
- E. coli O111:NM counts (log10 cfu/ml) at min 2 [3, 5]: 5.5 log10 cfu/ml
- E. coli O111:NM counts (log10 cfu/ml) at min 5 [3, 5]: 5.7 log10 cfu/ml
- E. coli O111:NM counts (log10 cfu/ml) at min 10 [3, 5]: 5.5 log10 cfu/ml
- E. coli O111:NM counts (log10 cfu/ml) at min 20 [3, 5]: 5.8 log10 cfu/ml
- E. coli O111:NM counts (log10 cfu/ml) at min 30 [3, 5]: 5.6 log10 cfu/ml
- E. coli O111:NM counts (log10 cfu/ml) at min 60 [3, 5]: 5.4 log10 cfu/ml
- E. coli O111:NM counts (log10 cfu/ml) at min 120 [3, 5]: 5.5 log10 cfu/ml

— patent publication US8137705B2 (priority 2005, dated 2012)
